{"source": "paper PMC10489644", "about": "“In Vitro Evaluation of the Potential for Drug Interactions by Salidroside” (Nutrients, 2023)", "key": {"OATP1B1": {"molecular_target": "T1, OATP1B1 (Homo sapiens, UniProt Q9Y6L6)", "T1 sequence (Q9Y6L6 1-691)": "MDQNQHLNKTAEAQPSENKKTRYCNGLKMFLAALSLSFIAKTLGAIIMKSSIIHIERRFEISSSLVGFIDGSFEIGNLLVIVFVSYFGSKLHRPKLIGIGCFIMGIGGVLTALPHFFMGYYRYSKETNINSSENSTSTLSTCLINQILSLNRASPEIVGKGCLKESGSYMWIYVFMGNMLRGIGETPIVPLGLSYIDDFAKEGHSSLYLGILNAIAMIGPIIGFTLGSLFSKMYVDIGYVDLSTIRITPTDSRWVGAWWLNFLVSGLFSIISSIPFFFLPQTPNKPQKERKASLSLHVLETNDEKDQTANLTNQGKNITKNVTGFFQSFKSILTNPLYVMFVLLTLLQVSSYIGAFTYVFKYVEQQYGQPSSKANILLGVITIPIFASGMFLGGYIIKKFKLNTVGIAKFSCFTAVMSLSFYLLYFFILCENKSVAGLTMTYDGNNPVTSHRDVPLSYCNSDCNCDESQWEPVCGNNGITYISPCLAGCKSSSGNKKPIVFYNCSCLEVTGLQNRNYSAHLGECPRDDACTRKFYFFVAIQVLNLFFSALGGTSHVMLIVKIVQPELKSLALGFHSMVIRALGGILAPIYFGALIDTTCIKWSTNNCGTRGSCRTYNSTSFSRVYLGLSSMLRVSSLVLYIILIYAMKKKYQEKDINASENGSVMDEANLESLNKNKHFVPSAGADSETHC", "assay": "Uptake transport inhibition in HEK293-OATP1B1 cells", "description": "HEK293-OATP1B1 and OATP1B3 cells were diluted to 1 × 10^6 cells/mL with DMEM supplemented with 1% non-essential amino acid (NEAA), 10% fetal bovine serum (FBS), 1% PS solution (100 U/mL penicillin-G and 100 μg/mL streptomycin), and seeded on a 96-well BioCoat™ poly-d-lysine plate at a density of 1 × 10^6 cells/mL. […] Once the cells were anchored on the plate, the cell culture was replaced with DMEM containing 10% FBS and 1% PS solution (100 U/mL penicillin-G and 100 μg/mL streptomycin solution) and cultured one day for the uptake and inhibition studies. The cell culture medium was removed from the 96-well plate, then rinsed twice with 0.1 mL/well of pre-warmed transport buffer. The transporter cells containing pre-incubation solution were pre-incubated at 37 °C for 30 min. Then the pre-incubation solution was removed and replaced with 0.1 mL/well of dosing solution containing a substrate, respectively (blank transporter buffer containing a substrate, transport buffer containing a substrate and PC, and transport buffer containing a substrate and salidroside). Then, the transporter cells were incubated at 37 °C for 2 min. After incubation, all solutions in the cells were discarded and rinsed with 0.10 mL/well of ice-cold transport buffer (4 °C) three times. […] All samples were shaken and centrifuged at 4000 rpm at 4 °C for 15 min and the supernatant was removed for future analysis by LC-MS/MS.\nEnzyme activity (%) = PAR with compound/PAR vehicle × 100.\nEstradiol-17β-glucuronide (substrate) was incubated with an OATP1B1-transfected HEK293 cell monolayer in the presence or absence of salidroside at concentrations up to 100 µM."}, "CYP2B6 [1]": {"molecular_target": "T2, CYP2B6 (Homo sapiens, UniProt P20813)", "T2 sequence (P20813 1-491)": "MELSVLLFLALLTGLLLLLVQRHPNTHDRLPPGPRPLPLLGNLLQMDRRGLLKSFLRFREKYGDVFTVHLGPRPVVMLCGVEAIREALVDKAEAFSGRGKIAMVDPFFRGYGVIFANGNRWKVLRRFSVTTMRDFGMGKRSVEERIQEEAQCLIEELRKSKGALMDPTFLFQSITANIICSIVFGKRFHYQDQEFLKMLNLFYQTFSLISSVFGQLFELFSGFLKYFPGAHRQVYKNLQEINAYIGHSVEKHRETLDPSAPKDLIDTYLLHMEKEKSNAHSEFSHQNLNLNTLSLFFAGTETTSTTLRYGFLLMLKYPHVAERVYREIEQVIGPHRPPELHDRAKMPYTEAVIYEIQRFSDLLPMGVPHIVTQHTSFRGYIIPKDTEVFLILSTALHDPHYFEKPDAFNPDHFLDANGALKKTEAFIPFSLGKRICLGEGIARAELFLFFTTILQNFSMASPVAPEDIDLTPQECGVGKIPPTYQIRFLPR", "assay": "biochemical", "protocol": "(§1) Incubation without 30 min pre-incubation, 178.5 µL of liver microsomes working was pre-incubated in a 37 °C water bath for 30 min. After the pre-incubation, 1.5 μL of test compound or control compound working solution, 60 μL of substrate working solution, and 60 μL of NADPH working solution were added; then, the reaction mixture was mixed by pipetting up and down and then incubated at 37 °C for 10 min. Incubation with 30 min pre-incubation. Next, 1.5 μL of test compound or control compound working solutions and 60 μL of NADPH working solution were added into 178.5 μL of liver microsome working solution, then the reaction mixture was mixed by pipetting up and down and then pre-incubated at 37 °C for 30 min. […]\n(§2) For competitive and time-dependent CYP inhibition, the peak area ratios (PAR) of analyte/internal standard were used to semi-quantitatively determine the concentration of acetaminophen (CYP1A2 activity), 4’-hydroxydiclofenac (CYP2C9), 4’-hydroxymephenytoin (CYP2C19), dextrorphan (CYP2D6), 1’-hydroxymidazolam (CYP3A4), 6β-hydroxytestosterone (CYP3A4), hydroxybupropion (CYP2B6), and N-desethylamodiaquine (CYP2C8), with terfenadine as the internal standard by LC-MS/MS method. The HPLC-MS system utilized an Acquity UPLC system and Sciex API 4000 mass spectrometer in ESI positive mode, with quantitation employing MRM. […]"}, "[2]": {"design": "method as in PMID 35684130", "conditions": "multiple oral dose rat study; cited from earlier work"}, "CYP2B6 [3]": {"molecular_target": "T2, CYP2B6", "conditions": "microsomes", "protocol": "as §1, §2"}, "CYP2B6 [4]": {"system": "CYP2B6", "assay": "in vitro", "conditions": "human; for Mean Fold Induction: 48 h", "description": "The sandwich medium was removed, and the hepatocytes were treated with incubation solutions containing salidroside (1, 5, 10, and 30 µM), vehicle (0.1% DMSO), or positive inducers in triplicate for 24 h after the cultures were established. The incubation solution was aspirated and replaced with incubation solution containing the same concentrations of salidroside, vehicle, or positive inducers for an additional 24 h. The total treatment period was 48 h. After the treatment period of 48 h, the incubation solution was aspirated. Hepatocytes were washed twice with pre-warmed HBSS containing 10 mM HEPES (HBSS I) and then the remaining solution was aspirated. Hepatocytes were washed once with pre-warmed HBSS I and incubated with 140 μL of RLT (lysis buffer from RNeasy 96 Kit) supplemented with 1% β-mercaptoethanol. Plates were then stored at −70 °C in a freezer until RNA analysis. Before RNA extraction, the frozen plate was thawed, and cell lysates were transferred to 96-well plates. RNA isolation was performed using a QIAcube RNA extraction system. Reverse transcription was performed to obtain cDNA. Quantification of the selective genes by real-time quantitative polymerase chain reaction (qPCR) was performed with TaqMan universal PCR Master Mix on the Bio-rad CFX384 TouchTM Real-Time PCR System. The relative change in the mRNA level of the selected target genes induced by each test compound was expressed in relation to the vehicle control sample, and fold changes in gene expression were determined by the ΔΔCt method."}}, "note": "Entries after “also recorded” stand apart in the source; their conditions may differ.", "data": [{"smiles": "OC[C@H]1O[C@@H](OCCc2ccc(O)cc2)[C@H](O)[C@@H](O)[C@@H]1O", "note": "[Salidroside]", "values": [{"measurement": "IC50", "setting": "OATP1B1", "value": "> 100", "unit": "µM"}, {"measurement": "activity at 2 min, 100 µM", "setting": "OATP1B1; human", "value": 84.4, "unit": "%"}, {"measurement": "inhibition at 2 min, 100 µM", "setting": "OATP1B1; human", "value": 15.5, "unit": "%"}, {"measurement": "mean % of control activity / inhibition of OATP1B1", "setting": "OATP1B1; up to concentrations of 33.3 mM, 33.3 µM", "value": "unchanged; also recorded: no inhibition"}, {"measurement": "IC50", "setting": "CYP2B6 [1]", "value": "> 50", "unit": "µM"}, {"measurement": "no observed adverse effect level (NOAEL)", "setting": "[2]", "value": "≥ 2000", "unit": "mg/kg/day"}, {"measurement": "IC50 Shift", "setting": "CYP2B6 [3]", "value": "no shift"}, {"measurement": "Mean Fold Induction", "setting": "CYP2B6 [4]; 1 µM", "value": 0.6, "unit": "fold"}, {"measurement": "Mean Fold Induction", "setting": "CYP2B6 [4]; 10 µM", "value": 1.1, "unit": "fold"}, {"measurement": "fold induction at 48 h, 1 µM", "setting": "CYP2B6 [4]; Mean Fold Induction", "value": 0.9}, {"measurement": "fold induction at 48 h, 3 µM", "setting": "CYP2B6 [4]; Mean Fold Induction", "value": 1.2}, {"measurement": "fold induction at 48 h, 10 µM", "setting": "CYP2B6 [4]; Mean Fold Induction", "value": 0.8}]}]}
